Test results from patent US20080108641A1, “Compounds for treating inflammatory disorders, demyelinating disdorders and cancers” (priority 2006, published 2008).
pIC50: −log10 of the molar value. Like-named read-outs stand apart in the source and are kept apart here.

How the values were obtained:
[1] = tested on: arthritis induced by monoclonal antibodies raised against type II collagen, plus LPS; test: Collagen monoclonal antibody (mABs) + LPS induced arthritis, hind paw volume; format: in vivo, BALB/c strain mice; conditions: for inhibition of increase in hind paw volume: 30 mg/kg orally x3
Protocol: Groups of 3 BALB/c strain mice, 6-7 weeks of age, were used for the induction of arthritis by monoclonal antibodies (mABs) raised against type II collagen, plus lipopolysaccharide (LPS). A combination of 4 different mABs (D8, F10, DI-2G and A2) totaling 4 mg/mouse was administered to the animal intravenously on day 0, followed by intravenous challenge with […] of LPS 72 hours later (day 3). From day 3, test substance and vehicle were each administered orally once daily for 3 consecutive days. For each animal, volumes of both hind paws were measured using a plethysmometer with water cell (12 mm diameter) on Days 0, 5, 7, 10, 14 and 17.
C0 (Cn): volume of day 0 (day n) in vehicle control
T0 (Tn): volume of day 0 (day n) in test compound-treated group
Reduction of edema in the hind paws by 30% or more is considered significant.

[2] = tested on: Experimental Autoimmune Encephalomyelitis (EAE); conditions: for mean clinical severity score: 20 mg/kg i.p. once a week
IL-10 = test: Mediator release, IL-10 (Con A-stimulated PBML, sandwich ELISA); format: cell-based; conditions: Homo sapiens
Protocol: (§1) In this experiment, test compound and/or vehicle were preincubated with human peripheral blood mononuclear leukocyte (PBML, 1×10^6/ml) in RPMI buffer pH 7.4 for 2 hours. Concanavalin A (Con A, 20 μg/ml) was then added to stimulate the cells overnight in 5% CO2 at 37° C. IL-4 and IL-10 cytokine levels in the conditioned medium were then quantified using a sandwich ELISA kit. Compounds were screened at 10, 1, 0.1, 0.01 and 0.001 μM.

IL-4 = test: Mediator release, IL-4 (Con A-stimulated PBML, sandwich ELISA); format: cell-based; conditions: Homo sapiens
Protocol: as §1

[3] = 20 mg/kg i.p. weekly for 4, 6 and 8 weeks

CCN(CC)CCNc1ccc2ncn3c4ccc(O)cc4c(=O)c1c23 [Symadex™]
increase in hind paw volume ([1]; day 5, 3 consecutive daily oral doses at 30 mg/kg from day 3, vehicle 42%): 32%
inhibition of increase in hind paw volume ([1]; day 10): 61%
increase in hind paw volume ([1]; day 10, 3 consecutive daily oral doses at 30 mg/kg, vehicle 75%): 29%
inhibition of increase in hind paw volume ([1]; day 14): 74%
increase in hind paw volume ([1]; day 14, 3 consecutive daily oral doses at 30 mg/kg, vehicle 70%): 18%
inhibition of increase in hind paw volume ([1]; day 17): 59%
increase in hind paw volume ([1]; day 17, 3 consecutive daily oral doses at 30 mg/kg, vehicle 47%): 19%
mean clinical severity score ([2]; 4-week treatment cycle (n=14), starting mean 1.3, p 0.0001 vs control): 0.7
mean clinical severity score ([2]; 6 week treatment (n=3), control 1.3, p 0.009): 0.3
B-cell counts vs controls [2, 3]: no significant deviation from controls
CD4 and CD8 T-cell populations [2, 3]: Neither are CD4 or CD8 T-cell populations modulated
total T-cell counts vs vehicle control [2, 3]: no difference
disease course after drug withdrawal ([2]; 20 mg/kg i.p. weekly for 4 weeks, then 4 weeks vehicle, p 0.002 vs control): remained in stable disease
clinical scores / disease progression ([2]; 20 mg/kg i.p., 2 doses 72 hours apart, from 30 days post immunization (n=3), p 0.002 vs control): reversed the progression of disease and restored baseline clinical scores
clinical scores at end of treatment course ([2]; 20 mg/kg i.p., 8 consecutive weekly doses (n=3), p 0.0006 vs control): converges on baseline
time to clinical recovery from the start of treatment ([2]; 40 mg/kg i.p. once a week for 4 weeks): ≤ 2 weeks
clinical progress and pathological findings vs vehicle control ([2]; 20 and 40 mg/kg i.p. once a week for 4 weeks from day 40, p 0.004 (20 mg/kg), 0.001 (40 mg/kg)): profound and substantial change
inflammatory cells in chronic demyelinated plaques ([2]; after prolonged treatment): virtually no remaining inflammatory cells
endogenous remyelination ([2]; chronic-progressive model, after disease progression): effective in permitting endogenous remyelination
scores for meningeal inflammation and perivascular infiltration ([2]; treated groups vs vehicle controls, weekly dosing for 4 weeks): more severe in the treated groups than in vehicle controls
inhibition at 0.001 µM (IL-10; read-out: % inhibition of IL-10 release, 1 nM, read-out: % Growth Inhibition): 1%
inhibition at 0.01 µM (IL-10; read-out: % inhibition of IL-10 release, 10 nM, read-out: % Growth Inhibition): 16%
inhibition at 0.1 µM (IL-10; read-out: % inhibition of IL-10 release, 0.1 μM, read-out: % Growth Inhibition): 16%
inhibition at 1 µM (IL-10; read-out: % inhibition of IL-10 release, 1 μM, read-out: % Growth Inhibition): 39%
inhibition at 10 µM (IL-10; read-out: % inhibition of IL-10 release, 10 μM, read-out: % Growth Inhibition): 99%
pIC50 (IL-10; IL-10 release): 5.92
inhibition at 0.001 µM (IL-4; 1 nM, read-out: % Growth Inhibition): 8%
inhibition at 0.01 µM (IL-4; 10 nM, read-out: % Growth Inhibition): 7%
inhibition at 0.1 µM (IL-4; 0.1 μM, read-out: % Growth Inhibition): 2%
inhibition at 1 µM (IL-4; 1 μM, read-out: % Growth Inhibition): -9%
inhibition at 10 µM (IL-4; 10 μM, read-out: % Growth Inhibition): 105%
pIC50 (IL-4; IL-4 release): 5.48
